In publication PMC10287183 (Antiviral Research, 2023):

Key:
CatB and CatL = test: Z-Phe-Arg-AMC substrate degradation in whole cell lysates with CA-074; format: biochemical; conditions: CA-074 10 μM
SARS-CoV-2 Omicron = test: microbe, parasite or virus in culture; format: cell-based; conditions: Severe acute respiratory syndrome coronavirus 2, read-out: EC90 (mean ± SD)
in vitro [1] = conditions: human
in vitro [2] = conditions: human; remark: listed apart in the source

| SMILES | Z-Phe-Arg-AMC substrate degradation (CatB and CatL; Calu-3 whole cell lysate) | Z-Phe-Arg-AMC substrate degradation (CatB and CatL; Huh7-hACE2 whole cell lysate) | Z-Phe-Arg-AMC substrate degradation (CatB and CatL; Vero E6 whole cell lysate) | EC90 (SARS-CoV-2 Omicron) [µM] | CC50 (in vitro [1]) [µM] | CC50 (in vitro [2]) [µM] |
| --- | --- | --- | --- | --- | --- | --- |
| CCCNC(=O)[C@H]1O[C@@H]1C(=O)N[C@H](C(=O)N1CCC[C@H]1C(=O)O)[C@@H](C)CC [CA-074] | almost completely abolished | almost completely abolished | did not reduce substrate degradation |  |  |  |
| CCN(CCO)CCCC(C)Nc1ccnc2cc(Cl)ccc12 (stereo not shown) [Hydroxychloroquin, Hydroxychloroquine] |  |  |  | 7.7 ± 1.2 |  |  |
| O=[N+]([O-])c1ccc(O)c2ncccc12 [Nitroxoline, nitroxoline] |  |  |  | 6.4 ± 0.6 | > 100 | > 100 |
